Test results as given in patent US20090270363A1, “2-Aryl- and 2-Heteroarylthiazolyl Compounds, Methods for Their Preparation and Use Thereof” (Wyeth, priority 2008, published 2009).

Key:
[1] = system: Xenografts of a Human Breast Carcinoma Cell Line (MDA-MB-361); experiment: Tumor xenograft study versus Herceptin (Table 2); type: in vivo; conditions: 40 mg/kg/dose PO, days 1 through 20
Description: (§1) Selected fused bicyclic 2-aryl- or 2-heteroarylthiazolyl compounds of formula I were tested for their activity in a securin parental cell line (HCT116 FB) and a securin knockout (KO) cell line. […] The in-vivo activity of selected fused bicyclic 2-aryl- or 2-heteroarylthiazolyl compounds of formula I was studied in cells growing as xenografts in athymic (nude) mice. The effect of Examples 164, 166 and 167 was studied in xenografts of a human breast carcinoma cell line (MDA-MB-361).
(§2) In-vivo Activity in Tumor Xenografts. […] The fused bicyclic 2-arylthiazolyl compounds were formulated using 0.5% Methocel™ (methylcellulose) and 0.4% Tween 80™ (polysorbate-80 and oleic acid) and administered daily orally (PO), by gavage or by syringe. Tumor mass [(length×width^2)/2] was determined every 7 days. Inhibition of tumor growth was calculated relative to conventional (vehicle treated) controls.

[2] = system: securin "knock out" cells D8 (Securin-/-); experiment: Growth inhibition (sulforhodamine B, 5 days) of securin knock out cells D8; type: cell-based; conditions: for IC50: 120 h, securin knock out D8 cells, 5 days, SRB; for Selectivity Ratio D8: IC50 HCT116 / IC50 securin KO D8
Description: (§3) IC50 analysis was performed for selected fused bicyclic 2-aryl or 2-heteroarylthiazolyl compounds that were tested on HCT116 cells and Securin “knock out” cell lines.
(§4) Cell Culture—HCT116 and securin “knock out” cells. HCT116 and securin “knock out” cells (D8 and F3) were grown in RPMI+5% fetal bovine serum and gentamycin. They were maintained in a humidified 37° C. incubator with 5% CO2. Since the securin “knock out” cells have active chromosomal instability, cells were used at a low passage number of 2-13 passages. At or before passage 13 a new vial of cells was thawed and used for the screen. Cell seeding—HCT116 cells and securin “knock out” cells were trypsinized and suspended in RPMI+5% FBS at a density of 27,000 cells/mL. HCT116 and securin “knock out” cells were seeded separately in wells of a 96-well plate (Falcon Cat # 35-3872) at a cell density of 4000 cells per well. Cells were seeded in 150 μL of RPMI media containing 5% FBS and gentamycin. Cell seeding was performed under aseptic conditions. Cells were allowed to attach and grow overnight in a humidified 37° C. incubator.
(§5) Compound Dilution and Dispensation. A series of stock solutions, 10 mg/mL of fused bicyclic 2-aryl- or 2-heteroarylthiazolyl compounds to be tested, were brought to room temperature. The compounds were diluted 1:50 in RPMI+5% FBS (Highest concentration 200 μg/mL). The compounds were then serially diluted 1:3 across a deep-well titration plate resulting in final concentrations in the plate of 200, 66.7, 22.2, 7.4, 2.4, 0.8, 0.27, 0.091, 0.03, 0.01, and 0.0034 μg/mL with one well left without a compound. 50 μL of this dilution series was added to the 150 μL of cells to result in a final concentration of compound in with the cells of 50, 16.6, 5.5, 1.8, 0.6, 0.2, 0.068, 0.023, 0.0076, 0.0025, and 0.00084 μg/mL. The dilution and addition of compounds to the plates is performed using a Multimek 96 Robot (Beckman Coulter).
(§6) Incubation and analysis. After dosing, the cells in the 96 well plates were returned to the humidified 37° C. incubator. The compounds remained on the cells for 5 days. After 5 days, the cells were fixed to the plates with the addition of 50 μL of 50% (vol/vol) Trichloro Acetic Acid ([…]). The cells were fixed at 4° C. for 1 hour. The plates were washed 5 times in distilled water and allowed to dry. The cells were stained with 0.4% sulforhodamine B (Sigma) in 1% acetic acid. The cells were stained for 15 minutes at room temperature. The plates were then washed 3 times in 1% acetic acid. The plates were dried and the dye was solubilized in 10 mM Tris at pH 8.0. The plates were read on the Absorbence 560 setting on a Victor^2 V Model 1420 Multilabel HTS counter (Perkin Elmer).
(§7) Analysis of Results—IC50 data. Absorbence data was read off of the Victor and was converted to a percentage of the control (untreated) values. IC50 values were graphed and the point at which a 50% inhibition of the control level was determined. […] If the model was not able to determine an IC50, the IC50 was assigned to the lowest concentration that gives a 50% or greater decrease in absorbence compared to control levels. If the calculated IC50 value for a cell line exceeds the top concentration for the assay (typically 50 μg/mL), the assay was scored as >50.
(§8) Selectivity Ratio. The Selectivity Ratio is the ratio of IC50s between the parent cell line and the knock out cell line and is always a positive number and is typically an integer.

[3] = system: securin "knock out" cells F3 (Securin-/-); experiment: Growth inhibition (sulforhodamine B, 5 days) of securin knock out cells F3; type: cell-based; conditions: for IC50: 120 h, securin knock out F3 cells, 5 days, SRB; for Selectivity Ratio F3: IC50 HCT116 / IC50 securin KO F3
Description: as §3, §4, §5, §6, §7, §8

[4] = system: HCT116 cells (Securin+/+, securin parental, HCT116 FB); experiment: Growth inhibition (sulforhodamine B, 5 days) of securin parental cells; type: cell-based; conditions: Homo sapiens, HCT-116, 120 h, SRB
Description: as §3, §4, §5, §6, §7, §8

[5] = system: Xenografts of a Human Breast Carcinoma Cell Line (MDA-MB-361); experiment: Tumor xenograft study versus Vincristine (Table 3); type: in vivo
Description: as §1, §2
The effectiveness of Examples 164, 166 and 167 versus Vincristine at controlling tumor growth was studied and the results are summarized in Table 3 and FIG. 2.

[6] = 100 mg/kg/dose PO, BID, days 2 through 21
[7] = 100 mg/kg/dose PO, BID, days 2 through 21, BID vehicle group listed
[8] = 150 mg/kg/dose PO, days 2 through 21
[9] = 0.8 mg/kg/dose IP, days 2, 5 and 10

Compound	IC50 [2] [µM]	Selectivity Ratio D8 [2]	IC50 [3] [µM]	Selectivity Ratio F3 [3]	IC50 [4] [µM]	further results
CCOc1cc2ncc(C#N)c(Nc3ccc(F)c(Cl)c3)c2cc1NC(=O)/C=C/CN(C)C [EKB-569]						% T/C Day 7 [1]: 66%; % T/C Day 14 [1]: 80%; % T/C Day 21 [1]: 78%; Relative Tumor Growth Day 7 [1]: 1.28; Relative Tumor Growth Day 14 [1]: 2.57; Relative Tumor Growth Day 21 [1]: 8.24; S/T = # of Survivors/# of Treated on Day +21 [1]: 10/10
CN(C)c1ccc(-c2nc3c(s2)C(O)CC3)cc1 (stereo not drawn) [Example 5, 2-[4-(dimethylamino)phenyl]-5,6-dihydro-4H-cyclopenta[d][1,3]thiazol-6-ol]	1.3	43	1.8	30	54.3	
CN(C)c1ccc(-c2nc3c(s2)[C@H](O)CC3)cc1 [Example 6, (6R)-2-[4-(dimethylamino)phenyl]-5,6-dihydro-4H-cyclopenta[d][1,3]thiazol-6-ol]	0.46	95	0.84	52	43.4	
CN(C)c1cc(F)c(-c2nc3c(s2)C(O)CCC3)c(F)c1 (stereo not drawn) [Example 25, 2-[4-(dimethylamino)-2,6-difluorophenyl]-4,5,6,7-tetrahydro-1,3-benzothiazol-7-ol]	2.6	62	6.7	24	≥ 161	
Cc1cc(N(C)C)ccc1-c1nc2c(s1)C(O)CCC2 (stereo not drawn) [Example 45, 2-[4-(dimethylamino)-2-methylphenyl]-4,5,6,7-tetrahydro-1,3-benzothiazol-7-ol]	0.54	245	1.1	121	133	selectivity ratios (IC50 HCT116 FB/IC50 securin KO) [2]: high selectivity ratios
CCc1cc(N(C)C)ccc1-c1nc2c(s1)C(O)CCC2 (stereo not drawn) [Example 47, 2-[4-(dimethylamino)-2-ethylphenyl]-4,5,6,7-tetrahydro-1,3-benzothiazol-7-ol]	0.43	179	3	26	76.4	
COC(=O)c1cc(N(C)C)ccc1-c1nc2c(s1)C(O)CCC2 (stereo not drawn) [Example 55, methyl 5-(dimethylamino)-2-(7-hydroxy-4,5,6,7-tetrahydro-1,3-benzothiazol-2-yl)benzoate]	0.65	160	1.2	90	105	
CN(C)c1ccc(-c2nc3c(s2)C(O)CCC3)c(CO)c1 (stereo not drawn) [Example 60, 2-[4-(dimethylamino)-2-(hydroxymethyl)phenyl]-4,5,6,7-tetrahydro-1,3-benzothiazol-7-ol]	0.091	1076	0.12	821	97.5	
CN(C)c1ccc(-c2nc3c(s2)C(O)CCC3)c(C=O)c1 (stereo not drawn) [Example 67]	0.059	525	0.15	206	31	
CN(C)c1ccc(-c2nc3c(s2)C(O)CCC3)c(C(C)(C)O)c1 (stereo not drawn) [Example 72, 2-[4-(dimethylamino)-2-(1-hydroxy-1-methylethyl)phenyl]-4,5,6,7-tetrahydro-1,3-benzothiazol-7-ol]	1	52	2	27	54	
CC(O)c1cc(N(C)C)ccc1-c1nc2c(s1)C(O)CCC2 (stereo not drawn) [Example 73, 2-[4-(dimethylamino)-2-(1-hydroxyethyl)phenyl]-4,5,6,7-tetrahydro-1,3-benzothiazol-7-ol]	0.44	226	0.79	126	99.5	
CC(=O)c1cc(N(C)C)ccc1-c1nc2c(s1)C(O)CCC2 (stereo not drawn) [Example 74, 1-[5-(dimethylamino)-2-(7-hydroxy-4,5,6,7-tetrahydro-1,3-benzothiazol-2-yl)phenyl]ethanone]	0.15	650	0.18	558	100	
CC(=O)c1c(-c2nc3c(s2)C(O)CCC3)ccc(N(C)C)c1Br (stereo not drawn) [Example 81, 1-[2-bromo-3-(dimethylamino)-6-(7-hydroxy-4,5,6,7-tetrahydro-1,3-benzothiazol-2-yl)phenyl]ethanone]	0.13	459	0.35	170	58.9	
N#Cc1cc(N2CCCC2)ccc1-c1nc2c(s1)C(O)CCC2 (stereo not drawn) [Example 85, 2-(7-hydroxy-4,5,6,7-tetrahydro-1,3-benzothiazol-2-yl)-5-pyrrolidin-1-ylbenzonitrile]	0.19	253	0.31	159	48.4	
CCOc1cc2ncc(C#N)c(Nc3ccc(OCc4ccccn4)c(Cl)c3)c2cc1NC(=O)/C=C/CN(C)C [HKI-272, reference compound]						% T/C Day 7 [1]: 62%; % T/C Day 14 [1]: 89%; % T/C Day 21 [1]: 76%; Relative Tumor Growth Day 7 [1]: 1.19; Relative Tumor Growth Day 14 [1]: 2.86; Relative Tumor Growth Day 21 [1]: 8.03; S/T = # of Survivors/# of Treated on Day +21 [1]: 10/10
COc1cc(Nc2c(C#N)cnc3cc(OCCCN4CCN(C)CC4)c(OC)cc23)c(Cl)cc1Cl [SKI-606 20]						Relative Tumor Growth Day 8 [5, 6]: 1.97; Relative Tumor Growth Day 15 [5, 6]: 2.44; Relative Tumor Growth Day 22 [5, 6]: 3.91; Relative Tumor Growth Day 29 [5, 6]: 5.73; Relative Tumor Growth Day 36 [5, 6]: 10.26; S/T = # of Survivors/# of Treated on Day +36 [5, 6]: 8/10; % T/C Day 8 [5, 7]: 52%; % T/C Day 15 [5, 7]: 27%; % T/C Day 22 [5, 7]: 18%; % T/C Day 8 [5, 8]: 40%; % T/C Day 15 [5, 8]: 22%; % T/C Day 22 [5, 8]: 16%; Relative Tumor Growth Day 8 [5, 8]: 2.09; Relative Tumor Growth Day 15 [5, 8]: 2.77; Relative Tumor Growth Day 22 [5, 8]: 3.62; Relative Tumor Growth Day 29 [5, 8]: 7.22; Relative Tumor Growth Day 36 [5, 8]: 10.19; S/T = # of Survivors/# of Treated on Day +36 [5, 8]: 10/10
CC[C@]1(O)C[C@H]2CN(CCc3c([nH]c4ccccc34)[C@@](C(=O)OC)(c3cc4c(cc3OC)N(C=O)[C@H]3[C@@](O)(C(=O)OC)[C@H](OC(C)=O)[C@]5(CC)C=CCN6CC[C@]43[C@@H]65)C2)C1 [Vincristine, reference compound]						% T/C Day 8 [5, 9]: 33%; % T/C Day 15 [5, 9]: 23%; % T/C Day 22 [5, 9]: 30%; Relative Tumor Growth Day 8 [5, 9]: 1.75; Relative Tumor Growth Day 15 [5, 9]: 2.84; Relative Tumor Growth Day 22 [5, 9]: 6.71; Relative Tumor Growth Day 29 [5, 9]: 11.47
